# Values quoted from earlier work as cited in patent US20160000762A1, “IMPROVING COGNITIVE FUNCTION” (THE REGENTS OF THE UNIVERSITY OF CALIFORNIA, priority 2013, published 2016).
# Tested on: Aβ
# Settings: after traumatic brain injury; Loane et al., 2009; cited from earlier work
smiles,measurement,value
C[C@H](NC(=O)Cc1cc(F)cc(F)c1)C(=O)N[C@H](C(=O)OC(C)(C)C)c1ccccc1 [DAPT],Aβ levels,decreased
same,behavioral performance,improved
